Experimental data published in paper PMC8911803, “The Antiprotozoal Activity of Papua New Guinea Propolis and Its Triterpenes” (Molecules, 2022).
“And” between values parts separate entries of the source, which are not always exact repeats. Identical values can stand only once. Like-named read-outs stand apart in the source and are kept apart here.

Tests used:
T. congolense 6C3 = assay: microbe, parasite or virus in culture; assay type: cell-based, Trypanosoma congolense; conditions: for RF resistance factor: T. congolense 6C3 vs IL3000
T. congolense IL3000 = assay: Antiprotozoal assay, drug-sensitive T. congolense IL3000; assay type: cell-based, Trypanosoma congolense
T. b. brucei B48 [1] = assay: microbe, parasite or virus in culture; assay type: cell-based, Trypanosoma b. brucei; conditions: for RF resistance factor / RF resistance factor (EC50 B48/EC50 WT): T. b. brucei B48 vs S427WT
Procedure: (§1) Alamar blue (resazurin) assays were used to obtain the EC50 values for PNG and its fractions in at least three independent determinations.
(§2) The extract and the purified compounds were cultured and tested against T. b. brucei, T. congolense and C. fasciculata as described previously. The T. b. brucei strains were a standard drug-sensitive lab strain, Lister 427 (wild-type) and the derived cell line B48 was developed from the wild-type by gene deletion of the drug transporter TbAT1 followed by in vitro adaptation to pentamidine, leading to the further loss of the gene encoding TbAQP2 [48], rendering it highly resistant to the diamidine and melaminophenyl arsenical classes of trypanocides. The T. congolense strains were the lab strain IL3000 and its diminazene-adapted clone 6C3 [29]. The C. fasciculata strain HS6 was a gift of Prof. Terry Smith (University of St Andrews, UK).

U937 cells = assay: Cytotoxicity against U937 cells (resazurin); assay type: cell-based, human; conditions: for EC50 / AVG EC50 U937 cells: n = 3; for SI, selectivity index relative to T. b. brucei WT: EC50(U937)/EC50(TbbWT): U937 vs T. b. brucei WT
Procedure: U937 cells (European Collection of Cell Cultures Cat. No. 85011440, supplied by Sigma Aldrich, Dorset, UK) were cultured as described previously. U937 cells were grown to log phase at 37 °C and harvested at a density of 1 × 10^5 cells/mL in a 96-well plate (TPP, Trasadingen, Switzerland). Aliquots of 100 µL/well of the cells were added and the plate was incubated for 24 h at 37 °C, 5% CO2, 100% humidity. A 2-fold serial dilution of the test compound was carried out in growth medium, in another 96-well plate, and 100 μL of each dilution was then transferred to the cultured cells using a multichannel pipette, followed by another incubation for 24 h. Resazurin dye was then added at a final concentration of 10% (v/v) and the plates were incubated for a further 24 h, after which fluorescence was measured using a Wallac Victor 2 microplate reader (λ Ex/Em: 560/590 nm). The compounds and fractions were tested in triplicate, and cell viability was expressed as a percentage of the drug-free control. The resulting data were analysed using GraphPad Prism 8 to obtain dose-response curves and corresponding mean inhibitory concentration (EC50) values.

T. b. brucei S427WT = assay: Alamar blue (resazurin) assay, T. b. brucei s427 wild-type; assay type: cell-based, Trypanosoma b. brucei
Procedure: as §1, §2

C. fasciculata = assay: Antiprotozoal assay, C. fasciculata; assay type: cell-based, Crithidia fasciculata; conditions: Table 9
T. b. brucei B48 [2] = assay: Drug sensitivity using cell count (growth curve) of T. b. brucei B48; assay type: cell-based, Trypanosoma b. brucei; conditions: 1×, 2× and 4× EC50, 2 × 10^5 cells/mL, up to 48 h
[3] = Trypanosoma congolense, Table 7, purified compounds, n = 3
[4] = Trypanosoma brucei, read-out: AVG EC50 T. b. brucei B48, Table 5, purified compounds, n = 3
[5] = Homo sapiens, U-937, Table 8, purified compounds
[6] = Trypanosoma brucei, Table 5, purified compounds, n = 3
[7] = Trypanosoma congolense, Table 7, purified compounds, n = 3, read-out: AVG EC50 T. congolense IL3000
[8] = Table 5, purified compounds, n = 3
[9] = Table 5, purified compounds, n = 3, read-out: AVG EC50 T. b. brucei B48
[10] = drug-resistant strain vs standard strain
[11] = Table 7, purified compounds, n = 3

## N=C(N)c1ccc(/N=N/Nc2ccc(C(=N)N)cc2)cc1 [Diminazene, reference compound]
T. congolense 6C3; Table 6
  RF resistance factor: 5.90
T. congolense 6C3; Table 7
  RF resistance factor: 5.5
T. congolense 6C3; Trypanosoma congolense, Table 6, diminazene control, footnote: EC50 in µM
  EC50: 1.54 µM
T. congolense 6C3; [3]
  EC50: 1.55 µM
T. congolense IL3000; Trypanosoma congolense, read-out: AVG EC50 T. congolense IL3000, Table 6, diminazene control, footnote: EC50 in µM
  EC50: 0.26 µM
T. congolense IL3000; Trypanosoma congolense, read-out: AVG EC50 T. congolense IL3000, Table 7, purified compounds, n = 3
  EC50: 0.28 µM

## C=C(C)[C@@H]1CC[C@]2(CO)CC[C@]3(C)[C@H](CC[C@@H]4[C@@]5(C)CC[C@H](O)C(C)(C)[C@@H]5CC[C@]43C)[C@@H]12 [Betulin, betulin]
T. b. brucei B48 [1]; Table 5
  RF resistance factor: 0.84
T. b. brucei B48 [1]; [4]
  EC50: 22.3 µg/mL and 50.5 µM
T. congolense 6C3; Table 7
  RF resistance factor: 1.03
T. congolense 6C3; [3]
  EC50: 22.1 µg/mL and 49.9 µM
U937 cells; [5]
  EC50: 55.8 µg/mL and 126 µM
U937 cells
  SI, selectivity index relative to T. b. brucei WT: EC50(U937)/EC50(TbbWT): 2.1
T. b. brucei S427WT; [6]
  EC50: 26.6 µg/mL and 60.1 µM
T. congolense IL3000; [7]
  EC50: 21.5 mg/L

## C[C@H]1[C@H](C)CC[C@]2(C(=O)O)CC[C@]3(C)C(=CC[C@@H]4[C@@]5(C)C[C@@H](O)[C@H](O)[C@@](C)(CO)[C@@H]5[C@H](O)C[C@]43C)[C@H]12 [Madecassic acid, madecassic acid]
T. b. brucei B48 [1]; Table 5
  RF resistance factor: 0.88
T. b. brucei B48 [1]; [4]
  EC50: 16 µg/mL and 31.7 µM
T. congolense 6C3; Table 7
  RF resistance factor: 0.88
T. congolense 6C3; [3]
  EC50: 19.8 µg/mL and 59.1 µM
U937 cells; [5]
  EC50: 90.7 µg/mL and 180 µM
U937 cells
  SI, selectivity index relative to T. b. brucei WT: EC50(U937)/EC50(TbbWT): 5.0
T. b. brucei S427WT; [6]
  EC50: 18.1 µg/mL and 36 µM
T. congolense IL3000; [7]
  EC50: 22.6 µg/mL and 67.6 µM

## C=C(C)[C@@H]1CC[C@]2(C(=O)O)CC[C@]3(C)[C@H](CC[C@@H]4[C@@]5(C)CC[C@H](O)C(C)(C)[C@@H]5CC[C@]43C)[C@@H]12 [Betulinic acid, betulinic acid]
T. b. brucei B48 [1]; Table 5
  RF resistance factor: 0.81
T. b. brucei B48 [1]; [4]
  EC50: 19.6 µg/mL and 42.9 µM
T. congolense 6C3; Table 7
  RF resistance factor: 1.05
T. congolense 6C3; [3]
  EC50: 18.1 mg/L
U937 cells; [5]
  EC50: 51.7 µg/mL and 113 µM
U937 cells
  SI, selectivity index relative to T. b. brucei WT: EC50(U937)/EC50(TbbWT): 2.1
T. b. brucei S427WT; [6]
  EC50: 24.2 µg/mL and 53.1 µM
T. congolense IL3000; [7]
  EC50: 17.2 mg/L

## CC(C)(O)[C@@H]1CC[C@]2(CO)CC[C@]3(C)[C@H](CC[C@@H]4[C@@]5(C)CC[C@H](O)C(C)(C)[C@@H]5CC[C@]43C)[C@@H]12 [Hydroxybetulin, 20-hydroxybetulin]
T. b. brucei B48 [1]; Table 3
  RF resistance factor (EC50 B48/EC50 WT): 0.47
T. b. brucei B48 [1]; Table 3, pentamidine-resistant, n = 3
  AVG EC50 T. b. brucei B48: 2.09 mg/L
T. b. brucei B48 [1]; Table 5
  RF resistance factor: 0.47
T. b. brucei B48 [1]; [8]
  AVG EC50 T. b. brucei B48: 0.97 mg/L
T. b. brucei B48 [1]; [9]
  EC50: 2.09 µM
T. b. brucei B48 [1]; [10]
  fold activity against drug-resistant strain of T. b. brucei: > 2 fold
C. fasciculata
  AVG EC50 C. fasciculata: 23.4 mg/L
T. congolense 6C3; Table 6
  RF resistance factor: 0.48
T. congolense 6C3; Table 6, diminazene-resistant, n = 3
  AVG EC50 T. congolense 6C3: 6.09 mg/L
T. congolense 6C3; [11]
  AVG EC50 T. congolense 6C3: 2.77 mg/L
  EC50: 6.09 µM
T. congolense 6C3; [10]
  fold activity against drug-resistant strain of T. congolense: > 2 fold
T. b. brucei B48 [2]
  Effect on in vitro growth of T. b. brucei B48 (cell count over time): more trypanostatic effect
T. b. brucei B48 [2]; listed as 20-hydroxybetulin
  Effect on in vitro growth of T. b. brucei B48 (cell count over time): trypanostatic
U937 cells; Table 4
  AVG EC50 U937 cells: 47.0 mg/L
U937 cells; Table 8, purified compounds
  AVG EC50 U937 cells: 47.0 mg/L
  EC50: 102 µM
U937 cells
  SI, selectivity index relative to T. b. brucei WT: EC50(U937)/EC50(TbbWT): 23.0
U937 cells; U937 vs WT T. congolense
  selectivity index against WT T. congolense: 8.1
U937 cells; U937 vs resistant T. brucei
  selectivity index against resistant T. brucei: 48.5
U937 cells; U937 vs resistant T. congolense
  selectivity index against resistant T. congolense: 17.0
T. b. brucei S427WT; Table 3, n = 3
  AVG EC50 T. b. brucei S427WT: 2.04 mg/L
T. b. brucei S427WT; [8]
  AVG EC50 T. b. brucei S427WT: 2.04 mg/L
  EC50: 4.44 µM
T. b. brucei S427WT; Table 5, purified compounds, n = 3, listed as hydroxybetulin
  AVG EC50 T. b. brucei S427WT: 2.0 ± 0.1 mg/L
T. b. brucei S427WT; relative to betulinic acid
  fold more active than betulinic acid against T. b. brucei: 15 fold
T. congolense IL3000; Table 6, n = 3
  AVG EC50 T. congolense IL3000: 5.77 mg/L
T. congolense IL3000; [11]
  AVG EC50 T. congolense IL3000: 5.77 mg/L
T. congolense IL3000; Table 7, purified compounds, n = 3, listed as hydroxybetulin
  AVG EC50 T. congolense IL3000: 5.8 ± 1.3 mg/L

## CC(CC/C=C(/CO)C(=O)O)C1CCC2(C)C3CCC4C(C)(C)C(O)CCC45CC35CCC12C (stereo not shown) [Hydroxymangiferolic acid, 27-hydroxyisomangiferolic acid]
T. b. brucei B48 [1]; Table 5
  RF resistance factor: 0.87
T. b. brucei B48 [1]; [8]
  AVG EC50 T. b. brucei B48: 11.8 mg/L
T. b. brucei B48 [1]; [9]
  EC50: 25 µM
T. congolense 6C3; Table 7
  RF resistance factor: 0.94
T. congolense 6C3; [11]
  AVG EC50 T. congolense 6C3: 15.7 mg/L
  EC50: 33.2 µM
U937 cells; Table 8, purified compounds
  EC50: 260 µM
U937 cells
  SI, selectivity index relative to T. b. brucei WT: EC50(U937)/EC50(TbbWT): >7.4
T. b. brucei S427WT; [8]
  AVG EC50 T. b. brucei S427WT: 13.6 mg/L
  EC50: 28.8 µM
T. congolense IL3000; [11]
  AVG EC50 T. congolense IL3000: 16.7 mg/L
T. congolense IL3000; Table 7, purified compounds, n = 3, read-out: AVG EC50 T. congolense IL3000
  EC50: 35.3 µM

## N=C(N)c1ccc(OCCCCCOc2ccc(C(=N)N)cc2)cc1 [Pentamidine, pentamidine, reference compound]
T. b. brucei B48 [1]; Table 3
  RF resistance factor (EC50 B48/EC50 WT): 210
T. b. brucei B48 [1]; Table 3, listed as pentamidine
  RF resistance factor (EC50 B48/EC50 WT): 210.8
T. b. brucei B48 [1]; Table 5
  RF resistance factor: 145
T. b. brucei B48 [1]; Trypanosoma brucei, read-out: AVG EC50 T. b. brucei B48, Table 3, pentamidine control, footnote: values in µM
  EC50: 0.721 µM
T. b. brucei B48 [1]; [4]
  EC50: 0.62 µM
T. b. brucei B48 [2]
  Effect on in vitro growth of T. b. brucei B48 (cell count over time): parasites were almost completely eliminated from the media after 32 h
T. b. brucei S427WT; Trypanosoma brucei, Table 3, pentamidine control, footnote: values in µM
  EC50: 0.0034 µM
T. b. brucei S427WT; [6]
  EC50: 0.0043 µM
